Data reported in ChEMBL document CHEMBL1149553, “Bicyclo[2.2.2]octanes: close structural mimics of the nuclear receptor-binding motif of steroid receptor coactivators” (Bioorg Med Chem Lett, 2007).

Target: T1, Estrogen receptor (Homo sapiens, UniProt P03372)
T1 sequence (P03372 whole entry): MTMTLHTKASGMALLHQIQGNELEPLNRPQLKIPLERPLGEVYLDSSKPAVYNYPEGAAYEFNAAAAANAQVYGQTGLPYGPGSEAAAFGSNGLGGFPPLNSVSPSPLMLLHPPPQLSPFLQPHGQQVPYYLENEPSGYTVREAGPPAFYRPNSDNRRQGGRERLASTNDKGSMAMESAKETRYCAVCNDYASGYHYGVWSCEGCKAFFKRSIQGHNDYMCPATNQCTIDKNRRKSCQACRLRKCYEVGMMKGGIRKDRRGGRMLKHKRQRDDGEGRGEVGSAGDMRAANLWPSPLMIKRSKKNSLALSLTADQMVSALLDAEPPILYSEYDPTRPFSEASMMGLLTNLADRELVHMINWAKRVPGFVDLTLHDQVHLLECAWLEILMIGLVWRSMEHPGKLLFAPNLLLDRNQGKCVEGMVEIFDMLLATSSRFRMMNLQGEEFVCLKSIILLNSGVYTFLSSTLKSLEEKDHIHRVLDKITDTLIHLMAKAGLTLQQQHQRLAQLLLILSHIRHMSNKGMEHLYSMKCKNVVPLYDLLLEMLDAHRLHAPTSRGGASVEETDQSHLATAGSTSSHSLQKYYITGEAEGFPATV
Assay: Displacement of iodoacetamide-fluorescein-labeled SRC3 from ERalpha by TR-FRET assay

SMILES	Ki [µM]
COC(=O)C(CC1(C)CC2CCC1CC2C(C)(C)CCNC(=O)CCC(C)C)NC(=O)OCc1ccccc1 (stereo unspecified)	38
CC[C@H](C)[C@H](NC(=O)[C@H](CCCCN)NC(=O)[C@H](Cc1c[nH]cn1)NC(=O)[C@H](CCCNC(=N)N)NC(=O)[C@H](CCC(=O)O)NC(=O)[C@@H](NC(=O)[C@@H](N)CC(C)C)[C@@H](C)O)C(=O)N[C@@H](CC(C)C)C(=O)N[C@@H](Cc1c[nH]cn1)C(=O)N[C@@H](CCCNC(=N)N)C(=O)N[C@@H](CC(C)C)C(=O)N[C@@H](CC(C)C)C(=O)N[C@@H](CCC(N)=O)C(=O)N[C@@H](CCC(=O)O)C(=O)NCC(=O)N[C@@H](CO)C(=O)N1CCC[C@H]1C(=O)N[C@@H](CO)C(=O)N[C@@H](CC(=O)O)C(=O)O	0.19
COC(=O)C(=CC1(C)CC2C=CC1CC2C(C)(C)CCNC(=O)CCC(C)C)C(=O)OC (stereo unspecified)	7.9
COC(=O)C(CC1(C)CC2CCC1CC2C(C)(C)CCNC(=O)CCC(C)C)C(=O)OC (stereo unspecified)	7.1

The next lines start with the values.

Ki [µM]	SMILES
32	COC(=O)C(N)CC1(C)CC2CCC1CC2C(C)(C)CCNC(=O)CCC(C)C (stereo unspecified)
12	COC(=O)C(CC1(C)CC2CCC1CC2C(C)(C)CCNC(=O)CCC(C)C)C(=O)O (stereo unspecified)
